The values that follow come from patent publication US20110065675A1, “AZO DYE RELATED SMALL MOLECULE MODULATORS OF PROTEIN-PROTEIN INTERACTIONS” (University of Miami, priority 2008, published 2011).

Where two headings read alike, the source gives them in different places.

For the experiment, the target named is T1, human CD40/CD154 (Homo sapiens, UniProt P29965).
T1 construct: CD154 (soluble human, FLAG-tagged, recombinant from Alexis Biochemicals; MW=18 kDa); purchased Alexis Biochemicals
T1 sequence (P29965 113-261 limits assumed): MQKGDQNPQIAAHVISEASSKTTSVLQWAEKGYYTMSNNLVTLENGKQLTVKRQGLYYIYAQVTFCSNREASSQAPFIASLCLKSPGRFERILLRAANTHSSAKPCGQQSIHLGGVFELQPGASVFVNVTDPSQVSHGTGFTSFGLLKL
The experiment in a line: Human CD40/CD154 binding inhibition assay (cell-free, plate-based). On the procedure: A 96-well plate-based cell-free in vitro binding inhibition assay, which is a modification of an assay described in U.S. Pat. No. 7,173,046, incorporated by reference in its entirety, has been developed and used for activity screening. Briefly, CD40 is coated at a preselected concentration, and binding of (FLAG-tagged) CD154 is measured by reacting with secondary antibody and using TMB liquid substrate system as a substrate for horseradish peroxidase for reading at 450 nm. The detailed procedure is as follows: Microtiter plates (Nunc F MaxiSorp) were coated with […] of CD40: Fc (human:Fc human, recombinant from Alexis Biochemicals; MW=54 kDa) diluted in PBS pH 7.2 at a preselected concentration of 0.3125 μg/mL. Plates were covered with plate sealer and stored overnight at 4° C. The liquid was removed from the plates and blotted dry. Plates were blocked by washing once with approx. 300 μL/well of Blocking Solution (PBS pH 7.2, 0.05% Tween-20, 1% BSA) and incubated with the same solution for 1 hour at room temperature (RT) or at 4° C. overnight. Coated plates were washed three times with Washing Solution (PBS pH 7.4, 0.05% Tween-20) and blotted dry. A preselected dilution of CD154 (soluble human, FLAG-tagged, recombinant from Alexis Biochemicals; MW=18 kDa) of 0.0087500875 μg/mL range was prepared in 100 mM HEPES, 0.005% BSA pH 7.2. Binding was carried out by adding 100 μL of this CD154 dilution/well and incubating at RT in the presence of test compounds (or blank as negative control). After incubation, the plates were washed with Washing Solution and blotted dry. Bound CD154 was detected with 200 μL/well of secondary antibody mAb ANTI-FLAG M2—Peroxidase Conjugate (anti-FLAG M2-peroxidase HRP conjugate; Sigma-Aldrich) diluted 1:40,000 in Washing Solution. After incubation, the plates were washed and blotted dry. 200 μL/well of the HR-Peroxidase substrate TMB (3,3′,5,5′-tetramethylbenzidine; Sigma-Aldrich) were added, and the plates were incubated for approximately 30 minutes in the dark. The reaction was stopped with 0.5 M H2SO4 and read at 450 nm. All conditions were tested in at least three independent experiments in duplicate or triplicate per plates. Data were normalized and fitted with standard log inhibitor vs. response models using GraphPad Prism 5 to establish median inhibitory ICso values.
A representative result using the monoclonal anti-human CD154 antibody (R&D Systems, monoclonal anti-human CD40 ligand/TNFSF5 antibody, MAB617; MW≈150 kDa used) as positive control is shown in FIG. 1.
Binding inhibition assays with this system provided consistent and well-reproducible results, as FIG. 1 (bottom), focusing on the concentration range of their activities, illustrates. […] The effect of DMSO, which was used as the diluting solvent for the non-water-soluble compounds and is a standard solvent in HTS assays, on the integrity of the assay has been examined. DMSO concentrations above 10% interfere with the binding assay, but concentrations below 3% have no effect. […] Because 5 or 10 mM stock solutions were used, all IC50 values below 250 μM can be considered as unaffected by DMSO.

Setting [1] is: cell-free binding, read-out: Human CD40/CD154 IC50.

For `Cc1ccc(C(=O)Nc2ccc(S(=O)(=O)O)c3cc(S(=O)(=O)O)cc(S(=O)(=O)O)c23)cc1NC(=O)c1cccc(NC(=O)Nc2cccc(C(=O)Nc3cc(C(=O)Nc4ccc(S(=O)(=O)O)c5cc(S(=O)(=O)O)cc(S(=O)(=O)O)c45)ccc3C)c2)c1` [Suramin, reference compound], the IC50 reads like this: under setting [1], 14.6 µM; (cell-free binding, read-out: Human CD40/CD154 IC50 (ug/mL) (converted)) 14 µM.

Regarding `O=C([O-])C1=NN(c2ccc(S(=O)(=O)[O-])cc2)C(=O)C1N=Nc1ccc(S(=O)(=O)[O-])cc1.[Na+].[Na+].[Na+]` (stereo not drawn) [Tartrazine (FD&C yellow 5), Tartrazine, reference compound], the “Activity in the human CD40/CD154 binding assay” value was “inactive”. Further, where the note is “cell-free binding”, the “Human CD40/CD154 IC50” value is >2000 µg/mL. In addition, the IC50 under setting [1] is > 2000 µM. In addition, the “Human CD40/CD154 log IC50” value (log of IC50, cell-free binding) is reported as >−3.0.
